Test results published in publication PMC10224004, “Modulation of Distribution and Diffusion through the Lipophilic Membrane with Cyclodextrins Exemplified by a Model Pyridinecarboxamide Derivative” (Pharmaceutics, 2023).

How the values were obtained:
[1] = Association constant of IPN with cyclodextrin by phase-distribution method; format: binding; details: 310.2 K
Description: The association constants (KC) of IPN with cyclodextrins were determined by a partition coefficient (phase-distribution) method. Possible partition of CDs to the 1-octanol or n-hexane phases was assumed to be negligible since both cyclodextrins used in this study have high aqueous solubility (>600 mg∙mL^−1). The KC values of the complexes between the drug and each CD were calculated assuming that in the presence of CD the distribution coefficient ( DappOrg/(buf+CD) ) is defined as:(8) DappOrg/(buf+CD)=C2Org/C2buf(drug)+C2buf(drug•CD) where C2buf(drug) and C2buf(drug•CD) are the concentrations of the drug and drug complex with CD in the aqueous phase. The following equation was applied:(9) DappOrg/(buf+CD)/DappOrg/buf=1+KC⋅CCD where DappOrg/buf and DappOrg/(buf+CD) are the distribution coefficients of a compound in the absence and in the presence of CD in the aqueous phase, respectively. Similarly to the phase-solubility method of the stability constants determination, but bearing in mind an opposite trends in solubility and organic solvent/water partition (the higher the solubility, the lower the distribution coefficient), the following dependence was plotted to obtain the association constant (KC) and the stoichiometric ratio of the complex (α):(10) log(DappOrg/buf−DappOrg/(buf+CD)/DappOrg/buf)=log(KC)+α⋅log(CCD) where CCD is the concentration of cyclodextrin in the aqueous phase of the distribution system and the y-intercept produces log(KC).
To approve the validity of the distribution results interpretation we used the distribution coefficients at different CDs concentrations for the determination of the association constants of IPN with the studied cyclodextrins. As shown by Másson et al. for hydrophilic drugs (a case of IPN), this method can be successfully used for the simultaneous determination of the association constant with cyclodextrins and partition coefficient. The association constants (KC) of IPN with HP-β-CD and M-β-CD were determined according to the phase-distribution method using Equations (8)–(10). To this end, the plots of the dependences (Equation (10)) were constructed and are illustrated in Figure 6.

[2] = Thermodynamic functions of the hypothetical n-hexane → 1-octanol transferring; format: physicochemical
Description: (§1) The apparent dissolution Gibbs energies ( ΔGsol ) and entropies ( ΔSsol ) were calculated at a standard temperature of 298.2 K and 310.2 K:(4) ΔGsol298.2/310.2=−RT(lnX2298.2/310.2) (5) ΔGsol298.2/310.2=ΔHsol0−TΔSsol298.2/310.2 where R is the universal gas constant.
The following conclusions can be derived from Table 3. The dissolution process is more favorable in 1-octanol as compared to n-hexane. In both solvents it is determined by the enthalpy, but the difference between the enthalpy and entropy contributions is not essential (especially in 1-octanol). The greater positive enthalpy term is a driving force of the unfavorable dissolution processes in these two solvents. A more than two-fold difference ΔHsol > TΔSsol exists in n-hexane, and a favorable positive entropy value is not enough to overlap the enthalpy one. From the dissolution thermodynamic functions, the hypothetical transfer n-hexane→1-octanol simulating the blood-brain penetration can be disclosed. As follows from Table 3, the transferring is favorable (negative ΔGtr value), in that the lower temperature facilitates the process. The hypothetical transition from n-hexane to 1-octanol is driven and determined by the negative enthalpy (~80%). A small negative entropy contribution— TΔStr indicates some ordering of the system upon the movement of the IPN molecules from n-hexane to 1-octanol.

[3] = Shake-flask solubility in 1-octanol and dissolution thermodynamics; format: physicochemical; details: for Molar solubility S2 × 10^1 in 1-Octanol: value = S2 × 10^1
Description: The solubility of the investigated drugs in 1-octanol and n-hexane was determined by the shake-flask technique. To this end, the glass vials containing the solutions with the excess amount of the compound were placed in an air thermostat and stirred at a predetermined temperature for no less than 24 h (equilibrium state). After this, the suspensions were left for 5 h or more to precipitate the undissolved drug and centrifuged (Biofuge pico, Thermo Electron LED GmbH, Langenselbold, Germany) at a predetermined temperature during 20 min (10,000 rpm). The aliquots of the clear solutions were taken and examined via a spectrophotometer (Cary-50 Varian, Palo Alto, CA, USA, Software Version 3.00 (339)). The molar concentrations of the compounds in the solvents were calculated using calibration curves at the appropriate wavelength characteristic for each substance. The experimental results were reported as an average of at least three replicated experiments with an accuracy of 2–4%. In order to evaluate the thermodynamic parameters of the IPN dissolution in 1-octanol and n-hexane, the molar solubility ( S2 ) was recalculated to the mole fraction ( X2 ) by the equation:(1) X2=M2S2/S2(M1−M2)+1000ρ, where M1 and M2 are the molar masses of IPN and organic solvent, respectively, and ρ (g∙cm^−3) is the density of the pure solvents. The linear functions describing the temperature dependences of the solubility within the temperature interval from 293.2 ± 0.5 K to 313.2 ± 0.5 K for both organic solvents were derived:(2) lnX2=A+B/T
The apparent solution enthalpies ΔHsol0 were determined by the van’t Hoff equation:(3) ∂(lnX2)/∂T=ΔHsol0/RT^2
as §1

[4] = from 1-Octanol/Buffer pH 7.4 System
[5] = from n-hexane/buffer pH 7.4 system

Association constant KC of IPN complex with HP-β-CD [1, 4]: 0.899 ± 0.022 | Association constant KC of IPN complex with M-β-CD [1, 4]: 0.479 ± 0.109 | α (parameter indicating the complex stoichiometry), IPN with HP-β-CD [1, 4]: 1.004 ± 0.014 | α (parameter indicating the complex stoichiometry), IPN with M-β-CD [1, 4]: 1.000 ± 0.065 | Association constant KC of IPN complex with HP-β-CD [1, 5]: 1.536 ± 0.128 | Association constant KC of IPN complex with M-β-CD [1, 5]: 1.311 ± 0.241 | α (parameter indicating the complex stoichiometry), IPN with HP-β-CD [1, 5]: 1.087 ± 0.076 | α (parameter indicating the complex stoichiometry), IPN with M-β-CD [1, 5]: 1.057 ± 0.143 | TΔStr298.2 ([2]; 298.2 K): -0.884 kcal/mol | ΔGtr298.2 ([2]; 298.2 K): -3.78 kcal/mol | ζHtr ([2]; 298.2 K (first value of cell)): 84.1% | ΔHtr298.2/310.2 ([2]; 298.2 K and 310.2 K): -4.66 kcal/mol | TΔStr310.2 ([2]; 310.2 K): -0.932 kcal/mol | ΔGtr310.2 ([2]; 310.2 K): -3.73 kcal/mol | ζHtr ([2]; 310.2 K (second value of cell)): 83.3% | TΔSsol298.2 ([3]; 1-octanol, 298.2 K): 3.42 ± 0.096 kcal/mol | ΔGsol298.2 ([3]; 1-octanol, 298.2 K): 1.48 ± 0.024 kcal/mol | ζHsol ([3]; 1-octanol, 298.2 K (first value of cell)): 58.9% | ΔHsol298.2/310.2 ([3]; 1-octanol, 298.2 K and 310.2 K): 4.9 ± 0.048 kcal/mol | TΔSsol310.2 ([3]; 1-octanol, 310.2 K): 3.56 ± 0.096 kcal/mol | ΔGsol310.2 ([3]; 1-octanol, 310.2 K): 1.34 ± 0.024 kcal/mol | ζHsol ([3]; 1-octanol, 310.2 K (second value of cell)): 57.9% | solubility higher in 1-octanol than in n-hexane ([3]; 310.2 K, ratio of molar solubilities): 338 fold | Molar solubility S2 × 10^1 in 1-Octanol ([3]; T 293.2 K): 4.44 ± 0.09 × 10^1 (M) | Molar solubility S2 × 10^1 in 1-Octanol ([3]; T 298.2 K): 5.06 ± 0.06 × 10^1 (M) | Molar solubility S2 × 10^1 in 1-Octanol ([3]; T 303.2 K): 5.73 ± 0.11 × 10^1 (M) | Molar solubility S2 × 10^1 in 1-Octanol ([3]; T 310.2 K): 6.86 ± 0.18 × 10^1 (M)
Compound: CC(C)NNC(=O)c1ccncc1 [IPN, N′-isopropyl isonicotinic hydrazide]
